The assay relates to mouse ear swelling. In words: Croton oil mouse ear swelling, IL-17A inhibitory peptide administered via duodenum. Particulars: peptides 300 mg/kg, dexamethasone 1 mg/mL, 10 mL/kg. Format: in vivo. How it is done:
Enteric coating technology can be used to achieve oral administration of targeted small intestine drugs. Considering factors such as gastric emptying and physical barriers in the stomach, in order to accurately detect the feasibility of direct intestinal administration of targeted IL-17A inhibitory peptide, duodenal administration is designed. Eight mice in each group are subjected to surgical exposure of the duodenum under ether anesthesia, and the drug is injected according to different grouping schemes.
The model control group (Con) is given PEG400 (50%, w/v)/physiological saline. The administration group was given different polypeptide samples (300 mg/kg), while the positive control group was given dexamethasone (1 mg/mL, 10 mL/kg), and then the muscular layer and cortex were sutured. Ear swelling model was established 6 minutes after suture. All mice in each group were coated with 10 μL croton oil on both sides of the right ear. After 4 hours of inflammation, the mice in each group were killed for cervical dislocation. After that, ear pieces were punched in the symmetrical parts of the left and right ears with a hole punch and weighed. Their mass was recorded. The swelling degree and swelling rate were calculated:
Swelling rate=((right ear mass−left ear mass)/left ear mass)*100%

This is an account of results in patent US20230416329A1, “A PEPTIDE WITH DISULFIDE BONDS AND INHIBITORY ACTIVITY AGAINST SERINE PROTEASES, DERIVED HYBRID PEPTIDES THEREOF, AND USES THEREOF” (INSTITUTE OF MATERIA MEDICA , CHINESE ACADEMY OF MEDICAL …, priority 2020, published 2023).

Several values for one entry are separate records, joined by “and”; a condition that tells them apart may be missing. Equal entries are not always repeated.

Turning to `C[C@@H]1C[C@H]2[C@@H]3CCC4=CC(=O)C=C[C@]4(C)[C@@]3(F)[C@@H](O)C[C@]2(C)[C@@]1(O)C(=O)CO` [dexamethasone], the “Swelling (%)” value (4 hours after croton oil) was 58.11 ± 18.81 % and 65.67 ± 15.52 %. Moreover, the “Swelling inhibitory (%)” value (vs model control) is 39.57% and 28.84%.
